Active and inactive are the calls of the source. The calls are words filed in the database; no cut-off is given here.
Tests used:
[1] = tested on: SU.86.86; experiment: Induction of DNA damage in human SU8686 cells assessed as increase in gammaH2AX phosphorylation at […] at cytotoxic IC50 incubated for 24 hrs by fluorometry method; assay type: functional
[2] = tested on: SU.86.86; experiment: Induction of DNA damage in human SU8686 cells assessed as increase in gammaH2AX nuclear foci under basal condition at IC50 by fluorometry method; assay type: functional, cell-based
[3] = tested on: SU.86.86; experiment: Induction of DNA damage in human SU8686 cells assessed as tail DNA formation at IC50 in presence of 5 uM cisplatin by alkaline Comet assay; assay type: functional, cell-based
[4] = Drug uptake in human SU8686 cells assessed as increase in doxorubicin uptake by flow cytometry analysis; assay type: ADME, cell-based; conditions: su.86.86
[5] = tested on: SU.86.86; experiment: Induction of DNA damage in human SU8686 cells assessed as increase in gammaH2AX phosphorylation at […] at cytotoxic IC50 in presence of 5 uM cisplatin by fluorometry method; assay type: functional
[6] = tested on: SU.86.86; experiment: Induction of DNA damage in human SU8686 cells assessed as increase gammaH2AX protein level at IC50 for 24 hrs by western blot analysis; assay type: functional, cell-based
[7] = tested on: SU.86.86; experiment: Induction of DNA damage in human SU8686 cells assessed as tail DNA formation at IC50 by alkaline Comet assay; assay type: functional, cell-based

Question: With `CC1=CCC[C@H]2[C@@](C)(CC3=C(O)C(=O)C=C(NCCc4ccccc4)C3=O)[C@@H](C)CC[C@@]12C` as the compound, how does the Activity [1] read?
Answer: >30%

Question: And the Activity [2]?
Answer: Active

Question: What about the Activity [3] of the same compound?
Answer: Active

Question: And the Drug uptake [4]?
Answer: Active

Question: And the Activity [5]?
Answer: >20%

Question: And the Activity [6]?
Answer: Active

Question: What about the Activity [7] of the same compound?
Answer: Active

Source: ChEMBL document CHEMBL4627257, “Targeting the DNA damage response (DDR) by natural compounds” (Bioorg Med Chem, 2020)
